Patent US20250340570A1, “COMPOSITIONS USEFUL FOR MODULATING SPLICING” (Skyhawk Therapeutics, Inc., priority 2022, published 2025)

Tests used:
total ATXN3 protein = assay: ATXN3 total protein assay (Mesoscale Discovery); assay type: cell-based; details: Human neuroblastoma SK-N-MC cells, 48 hours incubation, MSD assay
Procedure: Human neuroblastoma SK-N-MC cells were seeded at 10,000 cells/well in 384 well plates one day prior to compound treatment. The concentrations of compounds were tested at appropriate doses ranging from 30 µM to 0.6 nM. After incubation for 48 hours, the cells were lysed with 25.L of lysis buffer containing protease inhibitors, and total ATXN3 protein levels were assessed by Mesoscale Discovery (MSD) assay developed with one pair of and-ATXN3 antibodies. The capture and detect antibodies were raised in mouse and rabbit respectively. Anti-rabbit MSD-ST antibody was used for secondary antibody.
ATXN3 recombinant protein was used for standards. The readouts were captured with 35.L of MSD read buffer and multi-array 384-well high binding plates.

[1] = test system: ATXN3 transcripts containing exon 4; assay: ATXN3 quantitative splicing assay (qPCR, E4E5 transcripts containing exon 4); assay type: cell-based; details: Human neuroblastoma SK-N-MC cells, 24 h treatment, qPCR primers/probe E4E5
Procedure: Human neuroblastoma SK-N-MC cells were plated in 384-well plates at 20,000 cells/well. Twenty-four hours after plating, cells were treated with compounds for 24 h at appropriate concentrations ranging from 30 μM to 0.6 nM (0.3% DMSO). Treated cells were lysed in 15 μL of lysis buffer, and cDNA was synthesized using the Fast Advanced Cells-to-Ct kit. Two μL of each cDNA was used in qPCR reactions to confirm the exon 4 skipped transcripts of ATXN3. A second set of primers/probe E4E5 was used to detect the transcripts containing exon 4. The third set of primers/probe E8E9 was used to detect total gene level of ATXN3. The qPCR reactions were prepared in 384-well plates in 10.L volume, using TaqMan™ Fast Advanced Master Mix with primers and probes shown in the table below. Reactions were run in a Quant Studio 6 qPCR instrument with default settings.
The primers and probes are listed below in Table 5.

Compound | IC50 (total ATXN3 protein) | IC50 [1]
COC[C@H](N)Cc1sc2c(NCc3cccs3)snc2c1Cl [Compound 44, 7-[(R)-2-amino-3-methoxypropyl]-8-chloro-4-thenylamino-3,6-dithia-2-azabicyclo[3.3.0]octa-1,4,7-triene] | 501 to 5000 nM | 5000 to 10000 nM
Cc1c(CCCN)sc2c(NCc3cccs3)snc12 [Compound 45, 7-(3-aminopropyl)-8-methyl-4-thenylamino-3,6-dithia-2-azabicyclo[3.3.0]octa-1,4,7-triene] | 10000 to 40000 nM | 10000 to 40000 nM
N[C@H](Cc1sc2c(NCc3cccs3)snc2c1Br)CC1CC1 [Compound 49, 7-[(S)-2-amino-3-cyclopropylpropyl]-8-bromo-4-thenylamino-3,6-dithia-2-azabicyclo[3.3.0]octa-1,4,7-triene] | 501 to 5000 nM | 501 to 5000 nM
N[C@H](Cc1sc2c(NCc3cccs3)snc2c1Cl)C1CC(F)(F)C1 [Compound 53, 7-[(R)-2-amino-2-(3,3-difluorocyclobutyl)eth-yl]-8-chloro-4-thenylamino-3,6-dithia-2-azabicyclo[3.3.0]octa-1,4,7-triene] | 501 to 5000 nM | 501 to 5000 nM
C#C[C@H](N)Cc1sc2c(NCc3cccs3)snc2c1C [Compound 54, 7-[(R)-2-amino-3-butynyl]-8-methyl-4-thenylamino-3,6-dithia-2-azabicyclo[3.3.0]octa-1,4,7-triene] | 501 to 5000 nM | 501 to 5000 nM
CC#C[C@H](N)Cc1sc2c(NCc3cccs3)snc2c1C [Compound 55, 7-[(R)-2-amino-3-pentynyl]-8-methyl-4-thenylamino-3,6-dithia-2-azabicyclo[3.3.0]octa-1,4,7-triene] | 10000 to 40000 nM | 10000 to 40000 nM
N[C@H](Cc1sc2c(NCc3ccco3)snc2c1Cl)CC1CC1 [Compound 57, 7-[(S)-2-amino-3-cyclopropylpropyl]-8-chloro-4-(furfurylamino)-3,6-dithia-2-azabicyclo[3.3.0]octa-1,4,7-triene] | 501 to 5000 nM | 101 to 500 nM
N[C@H](Cc1sc2c(NCc3cccs3)snc2c1Cl)CC1CC1 [Compound 58, 7-[(S)-2-amino-3-cyclopropylpropyl]-8-chloro-4-thenylamino-3,6-dithia-2-azabicyclo[3.3.0]octa-1,4,7-triene] | 501 to 5000 nM | 501 to 5000 nM
COC[C@H](N)Cc1sc2c(NCc3cccs3)snc2c1Br [Compound 62, 7-[(R)-2-amino-3-methoxypropyl]-8-bromo-4-thenylamino-3,6-dithia-2-azabicyclo[3.3.0]octa-1,4,7-triene] | 501 to 5000 nM | 101 to 500 nM
COC[C@H](N)Cc1sc2c(NCc3cccs3)snc2c1C [Compound 64, 7-[(R)-2-amino-3-methoxypropyl]-8-methyl-4-thenylamino-3,6-dithia-2-azabicyclo[3.3.0]octa-1,4,7-triene] | 501 to 5000 nM | 501 to 5000 nM
C[C@H](N)Cc1cc2nsc(NCc3cccs3)c2s1 [Compound 66, 5-[(2S)-2-aminopropyl]-N-(thiophen-2-ylmethyl)thieno[3,2-c][1,2]thiazol-3-amine] | 10000 to 40000 nM | 10000 to 40000 nM
FC(F)(F)c1csc2c(NCc3cccs3)snc12 [Compound 67, (thenyl){8-(trifluoromethyl)-3,6-dithia-2-azabicyclo[3.3.0]octa-1,4,7-trien-4-yl}amine] | 10000 to 40000 nM | 10000 to 40000 nM
Cc1c(C[C@@H](N)CC(F)F)sc2c(NCc3cccs3)snc12 [Compound 68, 7-[(S)-2-amino-4,4-difluorobutyl]-8-methyl-4-thenylamino-3,6-dithia-2-azabicyclo[3.3.0]octa-1,4,7-triene] | 10000 to 40000 nM | 10000 to 40000 nM
N[C@H](Cc1sc2c(NCc3cccs3)snc2c1Cl)CC(F)F [Compound 69, 7-[(S)-2-amino-4,4-difluorobutyl]-8-chloro-4-thenylamino-3,6-dithia-2-azabicyclo[3.3.0]octa-1,4,7-triene] | 10000 to 40000 nM | 10000 to 40000 nM
N[C@H](Cc1sc2c(NCc3cccs3)snc2c1Br)CC(F)F [Compound 70, 7-[(S)-2-amino-4,4-difluorobutyl]-8-bromo-4-thenylamino-3,6-dithia-2-azabicyclo[3.3.0]octa-1,4,7-triene] | 10000 to 40000 nM | 10000 to 40000 nM
Cc1c(C[C@@H](N)c2ccccc2)sc2c(NCc3cccs3)snc12 [Compound 71, 7-[(R)-2-amino-2-phenylethyl]-8-methyl-4-thenylamino-3,6-dithia-2-azabicyclo[3.3.0]octa-1,4,7-triene] | 5000 to 10000 nM | 10000 to 40000 nM
Cc1c(C[C@@H](N)[C@@H](C)F)sc2c(NCc3cccs3)snc12 [Compound 73, 7-[(2R,3R)-2-amino-3-fluorobutyl]-8-methyl-4-thenylamino-3,6-dithia-2-azabicyclo[3.3.0]octa-1,4,7-triene] | 5000 to 10000 nM | 10000 to 40000 nM

The next lines start with the values.

IC50 (total ATXN3 protein) | IC50 [1] | Compound
501 to 5000 nM | 501 to 5000 nM | N[C@H](Cc1sc2c(NCc3ccco3)snc2c1Cl)CC(F)(F)F [Compound 40, 7-[(S)-2-amino-4,4,4-trifluorobutyl]-8-chloro-4-(furfurylamino)-3,6-dithia-2-azabicyclo[3.3.0]octa-1,4,7-triene]
501 to 5000 nM | 501 to 5000 nM | N[C@H](Cc1sc2c(NCc3ccco3)snc2c1Br)CC(F)(F)F [Compound 41, 7-[(S)-2-amino-4,4,4-trifluorobutyl]-8-bromo-4-(furfurylamino)-3,6-dithia-2-azabicyclo[3.3.0]octa-1,4,7-triene]
501 to 5000 nM | 501 to 5000 nM | N[C@H](Cc1sc2c(NCc3cccs3)snc2c1Cl)C(F)F [Compound 42, 7-[(R)-2-amino-3,3-difluoropropyl]-8-chloro-4-thenylamino-3,6-dithia-2-azabicyclo[3.3.0]octa-1,4,7-triene]
101 to 500 nM | 501 to 5000 nM | N[C@@H](CO)Cc1sc2c(NCc3cccs3)snc2c1Cl [Compound 43, (R)-2-amino-3-(8-chloro-4-thenylamino-3,6-dithia-2-azabicyclo[3.3.0]octa-1,4,7-trien-7-yl)-1-propanol]
101 to 500 nM | 101 to 500 nM | N[C@@H](CO)Cc1sc2c(NCc3ccco3)snc2c1Cl [Compound 46, (R)-2-amino-3-{8-chloro-4-(furfurylamino)-3,6-dithia-2-azabicyclo[3.3.0]octa-1,4,7-trien-7-yl}-1-propanol]
101 to 500 nM | 101 to 500 nM | N[C@@H](CF)Cc1sc2c(NCc3cccs3)snc2c1Cl [Compound 47, 7-[(R)-2-amino-3-fluoropropyl]-8-chloro-4-thenylamino-3,6-dithia-2-azabicyclo[3.3.0]octa-1,4,7-triene]
101 to 500 nM | 101 to 500 nM | N[C@@H](CF)Cc1sc2c(NCc3ccco3)snc2c1Cl [Compound 48, 7-[(R)-2-amino-3-fluoropropyl]-8-chloro-4-(furfurylamino)-3,6-dithia-2-azabicyclo[3.3.0]octa-1,4,7-triene]
101 to 500 nM | 101 to 500 nM | N[C@@H](CO)Cc1sc2c(NCc3cccs3)snc2c1Br [Compound 59, (R)-2-amino-3-(8-bromo-4-thenylamino-3,6-dithia-2-azabicyclo[3.3.0]octa-1,4,7-trien-7-yl)-1-propanol]
0.01 to 100 nM | 0.01 to 100 nM | N[C@@H](CO)Cc1sc2c(NCc3ccco3)snc2c1Br [Compound 60, (R)-2-amino-3-{8-bromo-4-(furfurylamino)-3,6-dithia-2-azabicyclo[3.3.0]octa-1,4,7-trien-7-yl}-1-propanol]
101 to 500 nM | 101 to 500 nM | N[C@H](Cc1sc2c(NCc3ccco3)snc2c1Br)CC1CC1 [Compound 61, 7-[(S)-2-amino-3-cyclopropylpropyl]-8-bromo-4-(furfurylamino)-3,6-dithia-2-azabicyclo[3.3.0]octa-1,4,7-triene]
101 to 500 nM | 101 to 500 nM | COC[C@H](N)Cc1sc2c(NCc3ccco3)snc2c1Br [Compound 63, 7-[(R)-2-amino-3-methoxypropyl]-8-bromo-4-(furfurylamino)-3,6-dithia-2-azabicyclo[3.3.0]octa-1,4,7-triene]
101 to 500 nM | 501 to 5000 nM | COC[C@H](N)Cc1sc2c(NCc3ccco3)snc2c1Cl [Compound 65, 7-[(R)-2-amino-3-methoxypropyl]-8-chloro-4-(furfurylamino)-3,6-dithia-2-azabicyclo[3.3.0]octa-1,4,7-triene]
101 to 500 nM | 501 to 5000 nM | Cc1c(C[C@@H](N)[C@H](C)F)sc2c(NCc3cccs3)snc12 [Compound 72, 7-[(2R,3S)-2-amino-3-fluorobutyl]-8-methyl-4-thenylamino-3,6-dithia-2-azabicyclo[3.3.0]octa-1,4,7-triene]
101 to 500 nM | 101 to 500 nM | C[C@H](F)[C@H](N)Cc1sc2c(NCc3cccs3)snc2c1Cl [Compound 74, 7-[(2R,3S)-2-amino-3-fluorobutyl]-8-chloro-4-thenylamino-3,6-dithia-2-azabicyclo[3.3.0]octa-1,4,7-triene]
